Experimental data from ChEMBL document CHEMBL5050832, “Compounds and methods for regulating, limiting, or inhibiting avil expression” (2020).
Calls of active or inactive are those of the source. No cut-off for these calls is given here.

How the values were obtained:
[1] = tested on: RD; assay: Antiproliferative activity against human RD cells; assay type: functional, cell-based
[2] = tested on: SJRH30; assay: Antiproliferative activity against human Rh30 cells; assay type: functional, cell-based
[3] = tested on: RD; assay: Antiproliferative activity against human RD cells at 20 uM assessed as decrease in cell number measured by crystal violet staining method relative to control; assay type: functional, cell-based
[4] = tested on: SJRH30; assay: Antiproliferative activity against human Rh30 cells at 20 uM assessed as decrease in cell number measured by crystal violet staining method relative to control; assay type: functional, cell-based
[5] = species: Homo sapiens; assay: Binding affinity towards recombinant AVIL (unknown origin) measured by thermal shift assay
[6] = tested on: U-87MG ATCC; assay: Downregulation of LIN28B expression in human U87 cells measured by qRT-PCR assay; assay type: functional, cell-based
[7] = tested on: Mesenchymal stem cells; assay: Antiproliferative activity against human mesenchymal stem cells at 20 uM assessed as decrease in cell number measured by crystal violet staining method relative to control; assay type: functional, cell-based
[8] = tested on: Mesenchymal stem cells; assay: Antiproliferative activity against human mesenchymal stem cells; assay type: functional, cell-based
[9] = Antiproliferative activity against human astrocytes; assay type: functional, cell-based; conditions: Astrocyte
[10] = tested on: U-87 MG; assay: Antiproliferative activity against human U87 cells; assay type: functional, cell-based, U-87MG ATCC

Activity [5]	IC50 [10]	Structure (SMILES)	Activity [1]	Activity [2]	Activity [3]	Activity [4]	Activity [6]	Activity [7]	Activity [8]	IC50 [9]
Active	–	Nc1nccc(N2CCCC(CO)(CCCc3ccccc3)C2)n1 (centres undefined)	Active	Active	Active	Active	Active	inactive	inactive	–
Active	–	c1ccc(CCC2CCN(CC3[C@H]4CNC[C@@H]34)CC2)cc1 (some centres undefined)	–	–	–	–	Active	–	–	–
–	8 µM	Cc1cc(N2CCCC(CO)(CCCc3ccccc3)C2)nc(N)n1 (centres undefined)	–	–	–	–	–	–	–	5 µM
Active	–	CN(Cc1ccc(Oc2ccccc2)cc1)C(=O)[C@@H]1C[C@@H](O)CN1	–	–	–	–	Active	–	–	–
